Measurements taken from PubChem BioAssay (NCI).
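Dose response: 5 concentrations. Exposure: 48 h. Format: 96-well plates. Endpoint: linear interpolation; highest concentration if not reached. TGI denotes the concentration required for complete inhibition of growth.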

Tests used:
Assay in all cases: NCI-60 cell line screen, 48 h
[1] = test system: LXFL 529 NSCLC
[2] = test system: SK-OV-3 ovarian
[3] = test system: UO-31 renal
[4] = test system: MALME-3M melanoma
[5] = test system: RXF 393 renal
[6] = test system: SF-268 CNS
[7] = test system: TK-10 renal
[8] = test system: T-47D breast
[9] = test system: XF 498 CNS
[10] = test system: SF-539 CNS
[11] = test system: SNB-78 CNS
[12] = test system: KM12 colon
[13] = test system: SW-620 colon
[14] = test system: SN12C renal
[15] = test system: SK-MEL-2 melanoma
[16] = test system: DMS 114 small cell lung
[17] = test system: HCC-2998 colon
[18] = test system: LOX IMVI melanoma
[19] = test system: HCT-15 colon
[20] = test system: MDA-MB-231 breast
[21] = test system: SR leukemia
[22] = test system: SK-MEL-5 melanoma
[23] = test system: PC-3 prostate
[24] = test system: DLD-1 colon
[25] = test system: NCI-H522 lung
[26] = test system: SNB-19 CNS
[27] = test system: SK-MEL-28 melanoma
[28] = test system: MDA-N
[29] = test system: HCT-116 colon
[30] = test system: OVCAR-8 ovarian
[31] = test system: ACHN renal
[32] = test system: OVCAR-3 ovarian
[33] = test system: HT29 colon
[34] = test system: COLO 205 colon
[35] = test system: IGROV1 ovarian
[36] = test system: U251 CNS
[37] = test system: DMS 273 small cell lung
[38] = test system: NCI-H23 lung
[39] = test system: NCI-H226 lung
[40] = test system: MDA-MB-435
[41] = test system: HOP-18 NSCLC
[42] = test system: SNB-75 CNS
[43] = test system: M19-MEL melanoma
[44] = test system: A498 renal
[45] = test system: 786-0 renal
[46] = test system: MCF7 breast
[47] = test system: HL-60(TB) leukemia
[48] = test system: UACC-62 melanoma
[49] = test system: OVCAR-4 ovarian
[50] = test system: DU-145 prostate
[51] = test system: A549 NSCLC
[52] = test system: HS 578T breast
[53] = test system: K-562 leukemia
[54] = test system: KM20L2 colon
[55] = test system: M14 melanoma
[56] = test system: MOLT-4 leukemia
[57] = test system: RPMI-8226 leukemia
[58] = test system: OVCAR-5 ovarian
[59] = test system: UACC-257 melanoma
[60] = test system: NCI-H460 lung

For `CCC(C)C(=O)O[C@H]1C(=O)O[C@@H]2C[C@H]3C(C)=CC(=O)[C@@H](O)[C@]3(C)[C@H]3[C@@H](O)[C@H](O)[C@@]4(C)OC[C@]32[C@@H]14` (stereo not given in full), the TGI [1] was 123 nM, the TGI [2] was 580 nM and the TGI [3] was 85.9 nM. For the same molecule, the TGI [4] was less than 24 nM, the TGI [5] was less than 34.5 nM and the TGI [6] was 454 nM. For the same molecule, the TGI [7] was less than 38.9 nM, the TGI [8] was less than 10.5 nM and the TGI [9] was 81.9 nM. For the same molecule, the TGI [10] was 33.4 nM, the TGI [11] was 394 nM and the TGI [12] was 138 nM. The TGI [13] was 280 nM, the TGI [14] was less than 13.5 nM and the TGI [15] was less than 50.7 nM. It also gave a TGI [16] of 43.1 nM, a TGI [17] of less than 24 nM and a TGI [18] of less than 24.6 nM. It also gave a TGI [19] of 71 nM, a TGI [20] of 388 nM and a TGI [21] of less than 20.4 nM. The TGI [22] was less than 33.8 nM, the TGI [23] was 14.3 nM and the TGI [24] was 317 nM. For the same molecule, the TGI [25] was 77.3 nM, the TGI [26] was less than 29.1 nM and the TGI [27] was 542 nM. For the same molecule, the TGI [28] was 54.3 nM, the TGI [29] was less than 10 nM and the TGI [30] was less than 30.2 nM. It also gave a TGI [31] of 566 nM, a TGI [32] of 90.6 nM and a TGI [33] of 27.2 nM. The TGI [34] was 278 nM, the TGI [35] was 88.9 nM and the TGI [36] was less than 34.5 nM. It also gave a TGI [37] of 46.8 nM, a TGI [38] of less than 10 nM and a TGI [39] of less than 25.9 nM. For the same molecule, the TGI [40] was less than 10 nM, the TGI [41] was 596 nM and the TGI [42] was less than 29.9 nM. The TGI [43] was 90.9 nM, the TGI [44] was less than 10 nM and the TGI [45] was 645 nM. For the same molecule, the TGI [46] was less than 10 nM, the TGI [47] was less than 10 nM and the TGI [48] was less than 43.4 nM. For the same molecule, the TGI [49] was less than 10 nM, the TGI [50] was less than 16.4 nM and the TGI [51] was 10700 nM. It also gave a TGI [52] of less than 10 nM, a TGI [53] of 214 nM and a TGI [54] of 310 nM. It also gave a TGI [55] of less than 21.6 nM, a TGI [56] of 267 nM and a TGI [57] of less than 26.6 nM. For the same molecule, the TGI [58] was 94.2 nM, the TGI [59] was less than 10 nM and the TGI [60] was less than 18.5 nM.
